# Reference: article PMC8749431 (mBio, 2022)
# Where two headings read alike, the source gives them in different places.
# Experiments:
# [1] = system: SARS2-Spp binding to Huh7 cells; format: cell-based, SARS-CoV-2
# [2] = system: SARS-CoV-2 S protein-mediated cell-cell fusion; format: cell-based; details: 30, 10, 3, 1 μM; 48 h
# [3] = system: wild-type SARS-CoV-2 (2019-nCoV/USA-WA1/2020 strain); format: cell-based
# [4] = system: icSARS-CoV-2-mNeonGreen; format: cell-based, SARS-CoV-2
# [5] = in vitro; details: African green monkey
# [6] = system: VSV-Gpp; format: cell-based, vesicular stomatitis virus
# [7] = system: SARS-CoV-2-NLuc; test: microbe, parasite or virus in culture; format: cell-based; details: Severe acute respiratory syndrome coronavirus 2, Vero C1008
# [8] = in vitro; details: human
# [9] = system: SARS-CoV-2 S protein-mediated cell-cell fusion; format: cell-based; details: 30 μM; 48 h
# [10] = target: recombinant SARS-CoV-2 S1-S2 protein (Severe acute respiratory syndrome coronavirus 2, UniProt P0DTC2); format: binding
# [11] = system: SARS2-Spp; format: cell-based, SARS-CoV-2
# [12] = system: Huh7 cells
# [13] = system: MA104 cells
# [14] = system: 293ACE2 cells
# [15] = in vitro; details: human; remark: listed apart in the source
Molecule,effect on viral binding to cells [1],inhibition of donor-recipient fusion events (SmBit-LgBit) [2],suppression of viral RNA levels [3],CC50 [5] [µM],inhibition of VSV-Gpp entry [6],CC50 [8] [µM],inhibition of fusion (GFP-RFP colocalization) [9],inhibition when present at early entry time points [11],inhibition when present during binding [11],CC50 [15] [µM],also measured
"CCN1CCN(C(c2ccc(Cl)cc2)c2ccc(Cl)cc2)CC1 [Dichlorcyclizine, dichlorcyclizine]",little or no effect,potent inhibition,up to 2 log,> 100,no inhibition,> 100,strong inhibition,potent inhibition,minimal inhibition,–,EC50 [4]: single-digit micromolar range; EC50 [7]: 4.99 µM; competition of probe cross-linking to the spike protein ([10]; 30-fold excess over CCZ-DB): could outcompete
O=C(CCCCC1SCC2NC(=O)NC21)NCCOCCOCCN1CCN(C(c2ccc(Cl)cc2)c2ccc(C3(C(F)(F)F)N=N3)cc2)CC1 (centres unmarked) [CCZ-DB],–,–,–,–,–,–,–,–,–,–,"binding to recombinant S1-S2 protein by cross-linking ([10]; 10 µM probe, UV irradiation, Neutravidin pull-down, anti-S2 blot): direct binding"
CCOC(=O)[C@H]1O[C@@H]1C(=O)N[C@@H](CC(C)C)C(=O)NCCC(C)C [E-64d],little or no effect,did not suppress,–,–,–,–,did not decrease,displayed inhibition,displayed inhibition,–,CC50 [12]: > 100 µM; CC50 [13]: > 100 µM; CC50 [14]: > 100 µM; inhibition when present at middle entry time point [11]: displayed inhibition
"CN1CCN([C@@H](c2ccccc2)c2ccc(Cl)cc2)CC1 [(S)-CCZ, (S)-chlorcyclizine]",–,inhibited,–,36.2,no inhibition,> 100,showed inhibition,–,–,> 30,CC50 ([12]; human): 41.7 µM
"CN(C)C(=O)COC(=O)Cc1ccc(OC(=O)c2ccc(NC(=N)N)cc2)cc1 [Camostat, camostat]",–,did not suppress,–,> 100,–,> 100,did not decrease,–,–,> 100,–
"Cc1cc(-c2nc(CN3CCC(C(=O)NCCCN4C[C@H](C)C[C@H](C)C4)CC3)co2)ccc1F [Fluoxazolevir, fluoxazolevir]",little or no effect,inhibited,up to 2 log,> 100,minimal,> 100,showed inhibition,potent inhibition,minimal inhibition,32.7,EC50 [4]: single-digit micromolar range; EC50 [7]: 1.96 µM
CCC(CC)COC(=O)[C@H](C)N[P@](=O)(OC[C@H]1O[C@@](C#N)(c2ccc3c(N)ncnn23)[C@H](O)[C@@H]1O)Oc1ccccc1 [remdesivir],–,–,up to 3 log,–,–,–,–,–,–,–,–
"CCN(CC)CCCC(C)Nc1ccnc2cc(Cl)ccc12 (centres unmarked) [Chloroquine, chloroquine]",–,–,–,> 100,strong inhibition,> 100,–,–,–,> 30,CC50 ([12]; human): 37.5 µM
Heparan sulfate,significantly inhibited,–,–,–,–,–,–,–,–,–,–
